Data: the supplement of paper PMC4862054
Where “and” joins values, the source holds several entries; their conditions need not be identical. Equal values may be shown once.

How the values were obtained:
Settings in all cases: incubation time: 72 h
[1] = test system: HCC1937; assay: normalised viability (% of control), CellTiter-Blue; higher = more viable cells (100 = DMSO, 0 = benzethonium chloride kill control)
How it was run: (§1)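 After 72 h on compound-loaded 384-well plates, breast cancer cell lines received 2.5 µl CellTiter-Blue reagent for 2 h at 37 °C. Fluorescence at 560/590 nm was scaled per plate so that vehicle was 100 and a positive kill control was 0. The value stands for normalised viability at a single listed concentration of the series.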

[2] = test system: MDA-MB-231; assay: as above
How it was run: as §1

[3] = test system: DU-4475; assay: as above
How it was run: as §1

[4] = test system: Hs578T; assay: as above
How it was run: as §1

[5] = test system: MFM-223; assay: as above
How it was run: as §1

[6] = test system: MDA-MB-436; assay: as above
How it was run: as §1

[7] = test system: SK-BR-3; assay: as above
How it was run: as §1

[8] = test system: CAL-148; assay: as above
How it was run: as §1

[9] = test system: HDQ-P1; assay: as above
How it was run: as §1

[10] = test system: BT-474; assay: as above
How it was run: as §1

[11] = test system: HCC1143; assay: as above
How it was run: as §1

[12] = test system: CAL-85-1; assay: as above
How it was run: as §1

[13] = test system: HCC1599; assay: as above
How it was run: as §1

[14] = test system: BT-549; assay: as above
How it was run: as §1

[15] = test system: MDA-MB-453; assay: as above
How it was run: as §1

[16] = test system: CAL-120; assay: as above
How it was run: as §1

[17] = test system: MDA-MB-468; assay: as above
How it was run: as §1

[18] = test system: CAL-51; assay: as above
How it was run: as §1

[19] = test system: HCC1937; assay: normalised response (% of control), CellTiter-Glo; higher = more viable cells (100 = DMSO, 0 = benzethonium chloride kill control)
How it was run: (§2)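 In 384-well plates holding compound at 5 concentrations in 10-fold steps over a 10,000-fold range specific to each compound, breast cancer cell lines were seeded as 20 µl suspension and incubated 72 h. CellTox Green fluorescence was measured at 485/520 nm, after which CellTiter-Glo luminescence was measured following 10 min at room temperature. Plate signals were normalised to 0.1 % DMSO (100) and a positive kill control (0), and each value is the normalised signal at a single concentration.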

[20] = test system: MDA-MB-231; assay: as above
How it was run: as §2

[21] = test system: DU-4475; assay: as above
How it was run: as §2

[22] = test system: Hs578T; assay: as above
How it was run: as §2

[23] = test system: MFM-223; assay: as above
How it was run: as §2

[24] = test system: MDA-MB-436; assay: as above
How it was run: as §2

[25] = test system: SK-BR-3; assay: as above
How it was run: as §2

[26] = test system: CAL-148; assay: as above
How it was run: as §2

[27] = test system: HDQ-P1; assay: as above
How it was run: as §2

[28] = test system: BT-474; assay: as above
How it was run: as §2

[29] = test system: HCC1143; assay: as above
How it was run: as §2

[30] = test system: CAL-85-1; assay: as above
How it was run: as §2

[31] = test system: HCC1599; assay: as above
How it was run: as §2

[32] = test system: BT-549; assay: as above
How it was run: as §2

[33] = test system: MDA-MB-453; assay: as above
How it was run: as §2

[34] = test system: CAL-120; assay: as above
How it was run: as §2

[35] = test system: MDA-MB-468; assay: as above
How it was run: as §2

[36] = test system: MCF-10A; assay: as above
How it was run: as §2

[37] = test system: CAL-51; assay: as above
How it was run: as §2

Row | Structure (SMILES) | normalised viability [1] | normalised viability [2] | normalised viability [3] | normalised viability [4] | normalised viability [5] | normalised viability [6] | normalised viability [7] | normalised viability [8] | normalised viability [9] | normalised viability [10] | normalised viability [11] | normalised viability [12] | normalised viability [13] | normalised viability [14] | normalised viability [15] | normalised viability [16] | normalised viability [17] | normalised viability [18] | normalised response [19] [%] | normalised response [20] [%] | normalised response [21] [%] | normalised response [22] [%] | normalised response [23] [%] | normalised response [24] [%] | normalised response [25] [%] | normalised response [26] [%] | normalised response [27] [%] | normalised response [28] [%] | normalised response [29] [%] | normalised response [30] [%] | normalised response [31] [%] | normalised response [32] [%] | normalised response [33] [%] | normalised response [34] [%] | normalised response [35] [%] | normalised response [36] [%] | normalised response [37] [%]
1 | CO[C@@H]1[C@H](N(C)C(=O)c2ccccc2)C[C@H]2O[C@]1(C)n1c3ccccc3c3c4c(c5c6ccccc6n2c5c31)C(=O)NC4 [Midostaurin] (1 nM) | 132% | 95.3% | 100% | 104% | 108% | 98.2% | 109% | 119% | 108% | 99.7% | 129% | 112% | 94.2% | 104% | 94.3% | 113% | 99.5% | 96.4% | 93.5 | 107 | 94 | 96.8 | 100 | 83 | 102 | 103 | 91.2 | 97.3 | 101 | 104 | 109 | 101 | 92.5 | 97.2 | 106 | 93.4 | 104
2 | COc1cc(Nc2c(C#N)cnc3cc(OCCCN4CCN(C)CC4)c(OC)cc23)c(Cl)cc1Cl [Bosutinib] (1 nM) | 80.1% | 100% | 105% | 110% | 93.1% | 113% | 106% | 94.8% | 108% | 116% | 94% | 88.8% | 103% | 111% | 113% | 84.3% | 112% | 112% | 97.3 | 93.1 | 101 | 95.6 | 99.3 | 96.6 | 104 | 104 | 99.6 | 98.8 | 93 | 96.4 | 112 | 98.4 | 101 | 92.6 | 101 | 99.9 | 99.9
3 | CC(C)(C)NC(=O)[C@H]1CC[C@H]2[C@@H]3CC[C@H]4NC(=O)C=C[C@]4(C)[C@H]3CC[C@]12C [Finasteride] (1 nM) | 100% | 108% | 96.7% | 108% | 96.4% | 98.7% | 74.8% | 110% | 133% | 72.8% | 107% | 97% | 91.6% | 93.1% | 109% | 104% | 105% | 108% | 96.1 | 107 | 102 | 104 | 102 | 99.5 | 103 | 103 | 102 | 101 | 99 | 96 | 98.8 | 103 | 112 | 99.5 | 104 | 111 | 94.5
4 | Cc1cn(-c2cc(NC(=O)c3ccc(C)c(Nc4nccc(-c5cccnc5)n4)c3)cc(C(F)(F)F)c2)cn1 [Nilotinib] (1 nM) | 95.5% and 94% | 83.9% and 95.6% | 110% and 104% | 97.8% and 107% | 94% and 90.9% | 111% and 89.4% | 93.3% and 92.6% | 91.4% and 96.9% | 83.1% and 101% | 87.9% and 96% | 87.8% and 80.8% | 82.6% and 95.6% | 103% and 87.9% | 107% and 98.7% | 88.4% and 92.2% | 82.1% and 80.6% | 96% and 99.2% | 106% and 112% | 96.1 | 98.8 | 105 | 100 | 96 | 95.7 | 103 | 93.1 | 96.9 | 93.5 | 95.8 | 105 | 112 | 102 | 101 | 98.5 | 106 | 95.4 | 98.1
5 | CC(=O)[C@]1(O)Cc2c(O)c3c(c(O)c2[C@@H](O[C@H]2C[C@H](N)[C@H](O)[C@H](C)O2)C1)C(=O)c1ccccc1C3=O [Idarubicin] (0.1 nM) | 92.9% | 78% | 92.2% | 112% | 97% | 112% | 95.3% | 102% | 115% | 99.8% | 103% | 95.7% | 96.6% | 109% | 101% | 101% | 130% | 102% | 100 | 109 | 103 | 107 | 108 | 112 | 105 | 110 | 101 | 106 | 109 | 102 | 102 | 105 | 101 | 105 | 112 | 103 | 101
6 | CCNC(=O)CCC/C=C\C[C@@H]1[C@@H](/C=C/[C@@H](O)CCc2ccccc2)[C@H](O)C[C@@H]1O [Bimatoprost] (0.55 nM) | 103% | 120% | 111% | 113% | 94.9% | 111% | 117% | 96.5% | 119% | 110% | 99% | 94.7% | 115% | 103% | 102% | 91.6% | 109% | 120% | 99.9 | 101 | 102 | 93.3 | 94.3 | 98.5 | 85.8 | 98.3 | 92.7 | 95.8 | 92.6 | 96.6 | 88.5 | 103 | 108 | 95.8 | 99.3 | 91.1 | 90.8
7 | CNC(=O)c1ccccc1Sc1ccc2c(/C=C/c3ccccn3)n[nH]c2c1 [Axitinib] (1 nM) | 110% | 88.4% | 115% | 97.6% | 95.5% | 98% | 104% | 94.9% | 73.7% | 93.5% | 101% | 86.8% | 92.4% | 96.2% | 95.6% | 77.4% | 102% | 101% | 107 | 111 | 104 | 98.1 | 107 | 95.3 | 109 | 103 | 105 | 98.6 | 102 | 99.8 | 103 | 110 | 109 | 104 | 105 | 101 | 78.7
8 | Cc1cc(Nc2nc(N[C@@H](C)c3ncc(F)cn3)ncc2Cl)[nH]n1 [AZD1480] (0.1 nM) | 122% | 93.5% | 115% | 116% | 92.3% | 114% | 105% | 112% | 124% | 114% | 98.1% | 91.2% | 97% | 109% | 102% | 93.4% | 111% | 118% | 102 | 98.3 | 97.2 | 96.8 | 94.9 | 104 | 98.7 | 95.5 | 104 | 98.7 | 96.7 | 102 | 78.9 | 104 | 101 | 100 | 94.8 | 102 | 117
